Assay results: patent publication US7763658B2, “Treatment for cancers” (Synta Pharmaceuticals Corp., priority 2003, dated 2010)
“Also recorded” adds a separate entry of the source.

Columns and labels:
MES-SA = test: Tumor cell growth inhibition, MTS assay, MES-SA; type: cell-based; conditions: Homo sapiens, 72 hours incubation
Description: (§1) The in vitro activity of the compounds was assessed in a selected set of human cancer cell lines.
(§2) MES-SA, a model of uterine sarcoma, is sensitive to a number of chemotherapeutic agents, including Doxorubicin, Dactinomycin, Mitomycin C, paclitaxel and Bleomycin, but resistant to Vinblastine and Cisplatin. MES-SA/DX5 was established in the presence of increasing concentrations of Doxorubicin. […] Both MES-SA and MES-SA/Dx5 were purchased from ATCC (ATCC CRL-1976 and ATCC CRL-1977, respectively).
(§3) All experiments were performed on exponentially growing cell culture. Cell densities were 2.5×10^4 cells/ml in all experiment except special.

HL-60 = test: Tumor cell growth inhibition, MTS assay, HL-60; type: cell-based; conditions: Homo sapiens, 72 hours incubation
Description: (§4) The in vitro activity of the compounds was assessed in a selected set of human cancer cell lines. Three pairs of tumor cell lines (non-resistant/resistant) were used to identify novel potent antitumor compounds which are capable of overcoming multi-drug resistance.
(§5) HL-60, a model of myeloid leukemia, was obtained from ATCC (ATCC CCL-240); and HL60/TX1000 was isolated in vitro by subculturing HL-60 in progressively higher concentration of paclitaxel. HL-60/TX1000 cells over-express mdr-1 mRNA and p-glycoprotein (PCP), as determined by western blot and immunofluorescence labeling with antiPGP antibodies. The cells are cross-resistant to paclitaxel, Vincristine, Adriamycin, Etoposide and Doxorubicin.
as §3

Bowes = test: Tumor cell growth inhibition, MTS assay, Bowes; type: cell-based; conditions: Homo sapiens, 72 hours incubation
Description: as §4
(§6) Bowes is a melanoma cell line; and Bowes/OV2 is a Vincristine resistant Bowes melanoma cell line.
as §3

[1] = tested on: MDR cell lines (MES-SA/DX5, HL-60/TX1000, Bowes/OV2); test: Tumor cell growth inhibition, summary over MDR cell lines; type: cell-based, human; conditions: for IC50: Homo sapiens, read-out: IC50 against the MDR cell lines
Description: as §4, §5, §2, §6, §3

CEM (T-cell leukemia) = test: cells; type: cell-based; conditions: Homo sapiens, 72 h, read-out: In vitro Cytotoxicity IC50, CEM
Description: (§7) All experiments were performed on exponentially growing cell culture.

[2] = tested on: normal cancer cell lines (MES-SA, HL-60, Bowes); test: Tumor cell growth inhibition, summary over normal cancer cell lines; type: cell-based; conditions: Homo sapiens, read-out: IC50 against normal cancer cell lines
Description: as §4, §5, §2, §6, §3

MES-SA/DX5 = test: Tumor cell growth inhibition, MTS assay, MES-SA/DX5; type: cell-based, human; conditions: protocol of Example 15, Table 2
Description: as §1, §2, §3

[3] = tested on: multi-drug resistant human uterine sarcoma MES-SA/DX5 tumors; test: MES-SA/DX5 tumors in nude mice; type: in vivo; conditions: 15 mg/kg intravenously, 3 times a week for 3 weeks
Description: A supplemented media was prepared from 50% DMEM/Dulbecco Modified Eagle Medium (High Glucose), 50% RPMI 1640, 10% FBS/Fetal Bovine Serum (Hybridoma Tested; Sterile Filtered), 1% L-Glutamine, 1% Penicillin-Streptomycin, 1% MEM Sodium Pyruvate and 1% MEM Non-Essential Amino Acids. FBS was obtained from Sigma Chemical Co. and other ingredients were obtained from Invitrogen Life Technologies, USA). The supplemental media was warmed to 37° C. and 50 ml of media was added to a 175 cm^2 tissue culture flask.
The cells used in the assay were multi-drug resistant MES-SA/DX-5 Human Uterine Sarcoma cells from the American Type Culture Collection. 1 vial of MES-SA/DX-5 cells from the liquid nitrogen frozen cell stock was removed. The frozen vial of cells was immediately placed into a 37° C. water bath and gently swirled until thawed. The freeze-vial was wiped with 70% ethanol and cells were immediately pipetted into the 175 cm^2 tissue culture flask containing supplemented media. […]
The flask was washed with 10 ml of sterile room temperature phosphate buffered saline (PBS). […] The supernatant was aspirated and the cell pellet was resuspended in 10 ml of supplemented media and the cells were counted. […]
The above procedure for trypsinizing and centrifuging the cells were followed. The supernatant was aspirated and the cell pellet was resuspended in 10 ml of sterile PBS and the cells were counted. […]

39SK normal fibroblast = test: In vitro cytotoxicity, MTS assay, 39SK; type: cell-based; conditions: Human normal fibroblast, 72 hours
Description: as §7

Row | IC50 (MES-SA) | IC50 (HL-60) | IC50 (Bowes) | IC50 compared with Compound (1), same multi-drug resistant cell lines [1] | IC50 [1] | SMILES | IC50 (CEM (T-cell leukemia)) | other results
1 | 0.004 µM | 0.002 µM | 0.002 µM | two to three orders of magnitude larger | 5000 nM | CC[C@]1(O)C[C@H]2CN(CCc3c([nH]c4ccccc34)[C@@](C(=O)OC)(c3cc4c(cc3OC)N(C=O)[C@H]3[C@@](O)(C(=O)OC)[C@H](OC(C)=O)[C@]5(CC)C=CCN6CC[C@]43[C@@H]65)C2)C1 [Vincristine] | 5 nM | –
2 | 0.005 µM | 0.002 µM | 0.005 µM | two to three orders of magnitude larger | 5000 nM | CC(=O)O[C@H]1C(=O)[C@@]2(C)[C@H]([C@H](OC(=O)c3ccccc3)[C@]3(O)C[C@H](OC(=O)[C@H](O)[C@@H](NC(=O)c4ccccc4)c4ccccc4)C(C)=C1C3(C)C)[C@]1(OC(C)=O)CO[C@@H]1C[C@@H]2O [Paclitaxel] | 10 nM | IC50 [2]: 2 to 5 nM
3 | – | – | – | – | – | CC(C(=O)NN1Cc2ccccc2C1=S)C(=O)NN1Cc2ccccc2C1=S [Compound (13)] | – | IC50 (MES-SA/DX5): 0.05 µM
4 | – | – | – | – | – | CCN(NC(=O)C(C)C(=O)NN(CC)C(=S)c1ccccc1)C(=S)c1ccccc1 [Compound (16)] | – | IC50 (MES-SA/DX5; Homo sapiens, MES-SA/Dx5): 0.05 µM; toxicity such as body weight suppression and behavior changes [3]: without any obvious toxicity; tumor growth / tumor size of MES-SA/DX5 compared with vehicle ([3]; FIG. 2): significantly reduced; also recorded: significantly inhibits the tumor growth
5 | – | – | – | – | – | CN(NC(=O)CC(=O)NN(C)C(=S)c1ccccc1)C(=S)c1ccccc1 [Compound (1)] | – | IC50 (39SK normal fibroblast): > 10000 nM
